Experimental data taken from the supplement of paper PMC4862054.

The molecules below were run on HDQ-P1 (assay: drug sensitivity score (DSS), CellTiter-Glo (DSS (AUC-based score)); higher = stronger drug effect (viability inhibition or cytotoxicity); extreme values may be limits of the assay). Conditions: incubation time: 72 h.
How it was run: (§1)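 Breast cancer cell lines were seeded in 20 µl suspension into 384-well plates already holding compound and incubated for 72 h. Each compound was tested at 5 concentrations in 10-fold steps across its own 10,000-fold range. Plates were normalised to 0.1 % DMSO and a positive kill control after CellTox Green and then CellTiter-Glo readings. The area under the fitted dose-response curve served as the basis for the drug sensitivity score.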

Structure (SMILES) | drug sensitivity score
CC(C)(C)c1cc(NC(=O)Nc2ccc(-c3cn4c(n3)sc3cc(OCCN5CCOCC5)ccc34)cc2)no1 [Quizartinib] | 0
CN(c1ccccc1CNc1nc(Nc2ccc3c(c2)CC(=O)N3)ncc1C(F)(F)F)S(C)(=O)=O | 7.23
CS(=O)(=O)CCNCc1ccc(-c2ccc3ncnc(Nc4ccc(OCc5cccc(F)c5)c(Cl)c4)c3c2)o1 [Lapatinib] | 2.38
COC1=C2C[C@@H](C)C[C@H](OC)[C@H](O)[C@@H](C)/C=C(\C)[C@H](OC(N)=O)[C@@H](OC)/C=C\C=C(/C)C(=O)NC(=CC1=O)C2=O [Geldanamycin] | 4
COC(=O)C[C@](O)(CCCC(C)(C)O)C(=O)O[C@@H]1C(OC)=C[C@]23CCCN2CCc2cc4c(cc2[C@H]13)OCO4 [Omacetaxine] | 23.1
C[C@@H]1CCN(C(=O)CC#N)C[C@@H]1N(C)c1ncnc2[nH]ccc12 [Tofacitinib] | 0
Nc1nccc(-c2c(-c3ccc(F)cc3)ncn2C2CCCCC2)n1 | 0
FC(F)c1nc2ccccc2n1-c1nc(N2CCOCC2)nc(N2CCOCC2)n1 [ZSTK474] | 10.8
Cc1cc(C(C)Nc2ccccc2)c2nc(N3CCOCC3)cc(=O)n2c1 (stereo not given) [TGX-221] | 0.256
COc1cc(Nc2ncc(F)c(Nc3ccc4c(n3)NC(=O)C(C)(C)O4)n2)cc(OC)c1OC [Tamatinib] | 0

Each molecule was assayed on HCC1937 in the same assay as above. Conditions: incubation time: 72 h.
How it was run: as §1

Structure (SMILES) | drug sensitivity score
CC(C)(C)c1cc(NC(=O)Nc2ccc(-c3cn4c(n3)sc3cc(OCCN5CCOCC5)ccc34)cc2)no1 [Quizartinib] | 0
CN(c1ccccc1CNc1nc(Nc2ccc3c(c2)CC(=O)N3)ncc1C(F)(F)F)S(C)(=O)=O | 2.73
CS(=O)(=O)CCNCc1ccc(-c2ccc3ncnc(Nc4ccc(OCc5cccc(F)c5)c(Cl)c4)c3c2)o1 [Lapatinib] | 0
COC1=C2C[C@@H](C)C[C@H](OC)[C@H](O)[C@@H](C)/C=C(\C)[C@H](OC(N)=O)[C@@H](OC)/C=C\C=C(/C)C(=O)NC(=CC1=O)C2=O [Geldanamycin] | 5.93
COC(=O)C[C@](O)(CCCC(C)(C)O)C(=O)O[C@@H]1C(OC)=C[C@]23CCCN2CCc2cc4c(cc2[C@H]13)OCO4 [Omacetaxine] | 21.2
C[C@@H]1CCN(C(=O)CC#N)C[C@@H]1N(C)c1ncnc2[nH]ccc12 [Tofacitinib] | 0
Nc1nccc(-c2c(-c3ccc(F)cc3)ncn2C2CCCCC2)n1 | 0
FC(F)c1nc2ccccc2n1-c1nc(N2CCOCC2)nc(N2CCOCC2)n1 [ZSTK474] | 6.46
Cc1cc(C(C)Nc2ccccc2)c2nc(N3CCOCC3)cc(=O)n2c1 (stereo not given) [TGX-221] | 0
COc1cc(Nc2ncc(F)c(Nc3ccc4c(n3)NC(=O)C(C)(C)O4)n2)cc(OC)c1OC [Tamatinib] | 0

These molecules were tested on HCC1599 in the same assay as above. Conditions: incubation time: 72 h.
How it was run: as §1

Structure (SMILES) | drug sensitivity score
CC(C)(C)c1cc(NC(=O)Nc2ccc(-c3cn4c(n3)sc3cc(OCCN5CCOCC5)ccc34)cc2)no1 [Quizartinib] | 0
CN(c1ccccc1CNc1nc(Nc2ccc3c(c2)CC(=O)N3)ncc1C(F)(F)F)S(C)(=O)=O | 3.99
CS(=O)(=O)CCNCc1ccc(-c2ccc3ncnc(Nc4ccc(OCc5cccc(F)c5)c(Cl)c4)c3c2)o1 [Lapatinib] | 0
COC1=C2C[C@@H](C)C[C@H](OC)[C@H](O)[C@@H](C)/C=C(\C)[C@H](OC(N)=O)[C@@H](OC)/C=C\C=C(/C)C(=O)NC(=CC1=O)C2=O [Geldanamycin] | 1.53
COC(=O)C[C@](O)(CCCC(C)(C)O)C(=O)O[C@@H]1C(OC)=C[C@]23CCCN2CCc2cc4c(cc2[C@H]13)OCO4 [Omacetaxine] | 26.7
C[C@@H]1CCN(C(=O)CC#N)C[C@@H]1N(C)c1ncnc2[nH]ccc12 [Tofacitinib] | 0
Nc1nccc(-c2c(-c3ccc(F)cc3)ncn2C2CCCCC2)n1 | 0
FC(F)c1nc2ccccc2n1-c1nc(N2CCOCC2)nc(N2CCOCC2)n1 [ZSTK474] | 2.33
Cc1cc(C(C)Nc2ccccc2)c2nc(N3CCOCC3)cc(=O)n2c1 (stereo not given) [TGX-221] | 0
COc1cc(Nc2ncc(F)c(Nc3ccc4c(n3)NC(=O)C(C)(C)O4)n2)cc(OC)c1OC [Tamatinib] | 0

Each molecule was assayed on MDA-MB-468 in the same assay as above. Conditions: incubation time: 72 h.
How it was run: as §1

Structure (SMILES) | drug sensitivity score
CC(C)(C)c1cc(NC(=O)Nc2ccc(-c3cn4c(n3)sc3cc(OCCN5CCOCC5)ccc34)cc2)no1 [Quizartinib] | 0
CN(c1ccccc1CNc1nc(Nc2ccc3c(c2)CC(=O)N3)ncc1C(F)(F)F)S(C)(=O)=O | 8.4
CS(=O)(=O)CCNCc1ccc(-c2ccc3ncnc(Nc4ccc(OCc5cccc(F)c5)c(Cl)c4)c3c2)o1 [Lapatinib] | 0
COC1=C2C[C@@H](C)C[C@H](OC)[C@H](O)[C@@H](C)/C=C(\C)[C@H](OC(N)=O)[C@@H](OC)/C=C\C=C(/C)C(=O)NC(=CC1=O)C2=O [Geldanamycin] | 4.27
COC(=O)C[C@](O)(CCCC(C)(C)O)C(=O)O[C@@H]1C(OC)=C[C@]23CCCN2CCc2cc4c(cc2[C@H]13)OCO4 [Omacetaxine] | 27.4
C[C@@H]1CCN(C(=O)CC#N)C[C@@H]1N(C)c1ncnc2[nH]ccc12 [Tofacitinib] | 0
Nc1nccc(-c2c(-c3ccc(F)cc3)ncn2C2CCCCC2)n1 | 5.85
FC(F)c1nc2ccccc2n1-c1nc(N2CCOCC2)nc(N2CCOCC2)n1 [ZSTK474] | 8.61
Cc1cc(C(C)Nc2ccccc2)c2nc(N3CCOCC3)cc(=O)n2c1 (stereo not given) [TGX-221] | 4.69
COc1cc(Nc2ncc(F)c(Nc3ccc4c(n3)NC(=O)C(C)(C)O4)n2)cc(OC)c1OC [Tamatinib] | 0

These molecules were tested on MFM-223 in the same assay as above. Conditions: incubation time: 72 h.
How it was run: as §1

Structure (SMILES) | drug sensitivity score
CC(C)(C)c1cc(NC(=O)Nc2ccc(-c3cn4c(n3)sc3cc(OCCN5CCOCC5)ccc34)cc2)no1 [Quizartinib] | 0
CN(c1ccccc1CNc1nc(Nc2ccc3c(c2)CC(=O)N3)ncc1C(F)(F)F)S(C)(=O)=O | 2.28
CS(=O)(=O)CCNCc1ccc(-c2ccc3ncnc(Nc4ccc(OCc5cccc(F)c5)c(Cl)c4)c3c2)o1 [Lapatinib] | 0
COC1=C2C[C@@H](C)C[C@H](OC)[C@H](O)[C@@H](C)/C=C(\C)[C@H](OC(N)=O)[C@@H](OC)/C=C\C=C(/C)C(=O)NC(=CC1=O)C2=O [Geldanamycin] | 11.3
COC(=O)C[C@](O)(CCCC(C)(C)O)C(=O)O[C@@H]1C(OC)=C[C@]23CCCN2CCc2cc4c(cc2[C@H]13)OCO4 [Omacetaxine] | 22.1
